Experiments:
[1] = Drug levels in lungs and plasma after inhalation vs. oral gavage; format: in vivo, mice
A549 xenografts = A549 xenografts in nude mice, PS V and curcumin alone and combined; format: in vivo, female nude mice; conditions: for inhibition of tumor growth (in words): duration of the study, to day 36; for average tumor volume: end of the study (day 36), PS V 200 mg/kg/d, curcumin 500 mg/kg/d, control 521±76 mm^3; for reduction in tumor weight: PS V p=0.06, PS V plus curcumin p<0.01
Protocol: Polymeric nanoparticles of poly(c-caprolactone) (11000)-polyethylene glycol (5000) with entrapped curcumin were prepared according to the nanopercipitation-solvent displacement method. […] Then, the mice were inoculated subcutaneously on both flanks with […] cells (2×10^6 each). The treatment was resumed one day after tumor implantation and continued daily until the end of the study.

human cancer cells = test: Cytotoxicity to human cancer cells compared with metabolites; format: cell-based
[2] = Pharmacokinetic parameters in lung and plasma after inhalational administration (HPLC)
Protocol: After 8 min of inhalation treatment, BALB/c nude mice were euthanized at various time points and drug levels were analyzed by HPLC in plasma and lung tissues.

[3] = tested on: pre-clinical models of lung cancer; conditions: cited from earlier work
[4] = mouse, in vivo, inhaled or intranasal
[5] = plasma, after 8 min of inhalation treatment

For `CCOP(=O)(OCC)OCCCCOC(=O)CC1=C(C)/C(=C/c2ccc([S+](C)[O-])cc2)c2ccc(F)cc21` (centres unmarked) [PS V, phospho-sulindac], the “PS levels in plasma” value ([1]; after inhalation and oral administration) was “undetectable”, the “total drug levels (PS V plus its metabolites) in lungs, inhalation compared to oral” value ([1]; inhalation 6.5 mg/kg vs oral 150 mg/kg) was “significantly higher” and the “inhibition of tumor growth (in words)” value (A549 xenografts) was “small inhibition of tumor growth”. The average tumor volume (A549 xenografts) was 419±36 mm^3, the “reduction in tumor volume” value (A549 xenografts; end of the study, vs control) was 19.6% and the “reduction in tumor weight” value (A549 xenografts; vs control) was 27%. The “cytotoxicity relative to sulindac, sulindac sulfide XI and sulindac sulfone XII” value (human cancer cells) was “more cytotoxic”.

`CSc1ccc(/C=C2/C(C)=C(CC(=O)O)c3cc(F)ccc32)cc1` [Sulindac sulfide XI, sulindac sulfide] gave an AUC [2, 4] of 18.9.

For `CC1=C(CC(=O)O)c2cc(F)ccc2/C1=C\c1ccc(S(C)(=O)=O)cc1` [Sulindac sulfone XII, sulindac sulfone], the AUC [2, 4] was 57.5 and the Cmax [2, 4] was 4.6 nmol/g.

For `CC1=C(CC(=O)O)c2cc(F)ccc2/C1=C\c1ccc([S+](C)[O-])cc1` (centres unmarked) [Sulindac, sulindac], the Tmax ([2]; lung, after 8 min of inhalation treatment) was 0 h, the AUC [2, 5] was 49.5 and the Tmax [2, 5] was 0 h.

For `COc1cc(/C=C/C(=O)CC(=O)/C=C/c2ccc(O)c(OC)c2)ccc1O` [curcumin], the “efficacy as a single agent” value [3] is given as less than 30%, the “inhibition of tumor growth (in words)” value (A549 xenografts) is given as “ineffective” and the average tumor volume (A549 xenografts) is given as 599±98 mm^3. For the same molecule, the “reduction in tumor weight” value (A549 xenografts; vs control) was “not”.

— patent US20140088044A1, “PRODUCT COMPRISING A NICOTINE-CONTAINING MATERIAL AND AN ANTI-CANCER AGENT” (priority 2012, published 2014)
